ChEMBL document CHEMBL3994677, “Discovery of GSK2193874: An Orally Active, Potent, and Selective Blocker of Transient Receptor Potential Vanilloid 4” (ACS Med Chem Lett, 2017)
pIC50: −log10 of the molar value.

Key:
Format in all cases: cell-based
[1] = target: T1, Transient receptor potential cation channel subfamily V member 4 (Rattus norvegicus, UniProt Q9ERZ8); experiment: Antagonist activity at rat TRPV4 expressed in HEK293 cells assessed as inhibition of GSK634775A-induced calcium influx preincubated for 10 mins followed by GSK634775A addition by […] dye based FLIPR assay
T1 sequence (Q9ERZ8 whole entry): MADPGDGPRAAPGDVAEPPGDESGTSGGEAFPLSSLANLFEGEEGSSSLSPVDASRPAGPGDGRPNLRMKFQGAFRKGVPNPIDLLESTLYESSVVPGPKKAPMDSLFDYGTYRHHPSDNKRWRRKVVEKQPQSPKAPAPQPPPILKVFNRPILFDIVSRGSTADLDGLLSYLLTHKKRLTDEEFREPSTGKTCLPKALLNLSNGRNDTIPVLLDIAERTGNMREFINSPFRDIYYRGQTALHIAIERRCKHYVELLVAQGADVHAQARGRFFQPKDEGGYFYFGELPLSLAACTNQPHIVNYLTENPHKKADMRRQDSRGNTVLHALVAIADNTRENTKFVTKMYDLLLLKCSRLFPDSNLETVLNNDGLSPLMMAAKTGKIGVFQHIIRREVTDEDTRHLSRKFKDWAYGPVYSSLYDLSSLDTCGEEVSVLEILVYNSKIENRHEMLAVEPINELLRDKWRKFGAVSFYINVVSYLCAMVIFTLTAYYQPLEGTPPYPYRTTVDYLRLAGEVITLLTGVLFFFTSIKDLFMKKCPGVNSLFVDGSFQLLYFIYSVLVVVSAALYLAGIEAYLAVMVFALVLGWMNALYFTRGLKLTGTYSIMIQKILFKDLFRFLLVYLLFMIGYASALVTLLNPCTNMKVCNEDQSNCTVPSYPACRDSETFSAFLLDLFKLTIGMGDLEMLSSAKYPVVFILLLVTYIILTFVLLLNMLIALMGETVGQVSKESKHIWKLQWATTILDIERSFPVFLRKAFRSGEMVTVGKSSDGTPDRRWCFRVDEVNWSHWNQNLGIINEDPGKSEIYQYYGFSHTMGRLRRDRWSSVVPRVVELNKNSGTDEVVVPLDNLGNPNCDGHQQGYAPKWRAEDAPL

[2] = target: Transient receptor potential cation channel subfamily V member 4 (Homo sapiens, UniProt Q9HBA0); experiment: Antagonist activity at human TRPV4 expressed in HEK293 cells assessed as inhibition of GSK634775A-induced calcium influx preincubated for 10 mins followed by GSK634775A addition by […] dye based FLIPR assay
Chain of Transient receptor potential cation channel subfamily V member 4 (Homo sapiens, UniProt Q9HBA0) (Q9HBA0 whole entry): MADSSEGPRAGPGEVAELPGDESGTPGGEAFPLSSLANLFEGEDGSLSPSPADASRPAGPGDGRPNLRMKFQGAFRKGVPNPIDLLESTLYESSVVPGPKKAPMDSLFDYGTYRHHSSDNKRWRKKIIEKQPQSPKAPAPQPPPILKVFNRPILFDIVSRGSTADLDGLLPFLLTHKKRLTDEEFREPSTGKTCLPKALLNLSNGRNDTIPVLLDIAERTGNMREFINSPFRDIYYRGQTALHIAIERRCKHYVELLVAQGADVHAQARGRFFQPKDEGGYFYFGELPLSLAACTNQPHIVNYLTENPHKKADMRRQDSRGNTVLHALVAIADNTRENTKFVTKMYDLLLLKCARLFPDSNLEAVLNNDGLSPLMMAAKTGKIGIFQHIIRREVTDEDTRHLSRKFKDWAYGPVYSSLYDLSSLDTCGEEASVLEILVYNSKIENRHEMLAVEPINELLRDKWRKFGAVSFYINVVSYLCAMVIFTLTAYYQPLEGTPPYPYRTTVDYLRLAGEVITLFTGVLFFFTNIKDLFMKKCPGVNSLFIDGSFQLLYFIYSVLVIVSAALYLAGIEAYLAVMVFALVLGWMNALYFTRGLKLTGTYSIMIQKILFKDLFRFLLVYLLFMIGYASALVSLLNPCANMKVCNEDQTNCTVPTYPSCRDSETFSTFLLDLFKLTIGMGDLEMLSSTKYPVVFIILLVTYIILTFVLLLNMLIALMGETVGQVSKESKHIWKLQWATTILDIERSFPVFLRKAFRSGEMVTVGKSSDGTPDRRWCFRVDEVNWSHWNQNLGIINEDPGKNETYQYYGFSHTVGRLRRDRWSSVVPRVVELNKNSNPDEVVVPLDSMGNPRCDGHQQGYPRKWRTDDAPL

[3] = target: T1, Transient receptor potential cation channel subfamily V member 4; experiment: Antagonist activity at rat TRPV4 expressed in HEK293 cells assessed as inhibition of 4alpha-PDD-induced intracellular calcium after 10 mins in presence of 45Ca2+ by microbeta liquid scintillation counting method
[4] = target: Transient receptor potential cation channel subfamily V member 4 (Mus musculus, UniProt Q9EPK8); experiment: Antagonist activity at mouse TRPV4 expressed in HEK293 cells assessed as inhibition of 4alpha-PDD-induced intracellular calcium after 10 mins in presence of 45Ca2+ by microbeta liquid scintillation counting method
Chain of Transient receptor potential cation channel subfamily V member 4 (Mus musculus, UniProt Q9EPK8) (Q9EPK8 whole entry): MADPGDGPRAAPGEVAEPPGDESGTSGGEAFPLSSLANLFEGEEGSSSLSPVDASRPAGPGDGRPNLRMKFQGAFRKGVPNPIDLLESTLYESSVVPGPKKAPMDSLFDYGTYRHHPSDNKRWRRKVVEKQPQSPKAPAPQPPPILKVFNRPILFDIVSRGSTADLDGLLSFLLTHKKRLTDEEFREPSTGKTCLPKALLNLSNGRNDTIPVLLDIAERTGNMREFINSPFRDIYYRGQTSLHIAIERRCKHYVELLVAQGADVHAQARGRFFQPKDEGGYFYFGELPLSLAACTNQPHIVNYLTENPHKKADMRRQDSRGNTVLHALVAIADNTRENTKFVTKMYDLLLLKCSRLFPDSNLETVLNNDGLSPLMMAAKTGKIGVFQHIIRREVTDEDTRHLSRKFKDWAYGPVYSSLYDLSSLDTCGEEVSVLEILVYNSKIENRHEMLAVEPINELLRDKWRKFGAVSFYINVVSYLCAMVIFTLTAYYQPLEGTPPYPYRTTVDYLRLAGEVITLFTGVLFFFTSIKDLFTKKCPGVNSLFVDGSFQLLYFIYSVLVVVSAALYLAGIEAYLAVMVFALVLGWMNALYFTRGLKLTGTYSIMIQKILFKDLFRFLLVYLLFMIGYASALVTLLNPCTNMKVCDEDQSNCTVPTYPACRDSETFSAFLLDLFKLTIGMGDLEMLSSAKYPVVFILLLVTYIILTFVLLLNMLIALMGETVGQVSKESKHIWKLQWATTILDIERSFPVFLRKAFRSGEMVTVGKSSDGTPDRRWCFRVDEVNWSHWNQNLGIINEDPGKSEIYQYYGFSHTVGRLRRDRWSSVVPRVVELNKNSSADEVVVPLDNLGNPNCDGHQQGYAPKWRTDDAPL

pIC50 [1]	pIC50 [2]	pIC50 [3]	pIC50 [4]	Structure (SMILES)
8.22	6.80			CC[C@H](NC(=O)c1c(CN2CCC(N3CCCCC3)CC2)c(-c2cccc(C(F)(F)F)c2)nc2ccccc12)c1ccccc1
8.60	7.22			O=C(N[C@H](c1ccccc1)C(F)(F)F)c1c(CN2CCC(N3CCCCC3)CC2)c(-c2cccc(C(F)(F)F)c2)nc2ccc(Br)cc12
8.10	6.70			C[C@H](NC(=O)c1c(CN2CCC(N3CCCCC3)CC2)c(-c2cccc(Cl)c2)nc2ccccc12)c1ccccc1
6.10	5.50			C[C@H](NC(=O)c1c(CN2CCC(N3CCNCC3)CC2)c(-c2cccc(C(F)(F)F)c2)nc2ccccc12)c1ccccc1
6.40	5.70			C[C@@H](NC(=O)c1c(CN2CCC(N3CCCCC3)CC2)c(-c2cccc(C(F)(F)F)c2)nc2ccccc12)c1ccccc1
7.89	6.30			Cc1cccc(-c2nc3ccccc3c(C(=O)N[C@@H](C)c3ccccc3)c2CN2CCC(N3CCCCC3)CC2)c1

The remaining lines, values behind:

Structure (SMILES)	pIC50 [1]	pIC50 [2]	pIC50 [3]	pIC50 [4]
C[C@H](NC(=O)c1c(CN2CCC(N(C)C)CC2)c(-c2cccc(C(F)(F)F)c2)nc2ccccc12)c1ccccc1	6.49	5.60		
CC(C)NCCN(C(C)C)S(=O)(=O)c1ccc(Cl)cc1Cl			5.49	5.23
C[C@H](NC(=O)c1c(CN2CCC(N3CCCCC3)CC2)c(-c2ccc(Cl)cc2)nc2ccccc12)c1ccccc1	7.80	6.49		
C[C@H](NC(=O)c1c(CN2CCCCC2)c(-c2cccc(C(F)(F)F)c2)nc2ccccc12)c1ccccc1	< 4.60	< 4.60		
C[C@H](NC(=O)c1c(CN2CCC(N3CCCCC3)CC2)c(-c2ccc(C(F)(F)F)cc2)nc2ccccc12)c1ccccc1	7.80	6.40		
Cc1ccc(-c2nc3ccccc3c(C(=O)N[C@@H](C)c3ccccc3)c2CN2CCC(N3CCCCC3)CC2)cc1	7.00	5.80		
C[C@H](NC(=O)c1c(CN2CCC(N3CCOCC3)CC2)c(-c2cccc(C(F)(F)F)c2)nc2ccccc12)c1ccccc1	8.40	7.30		
CCOc1ccc2c(C(=O)NC3(c4ccccc4)CC3)c(CN3CCC(N4CCCCC4)CC3)c(-c3cccc(C(F)(F)F)c3)nc2c1	8.80	7.10		
C[C@H](NC(=O)c1c(CN2CCC(C3CCCCC3)CC2)c(-c2cccc(C(F)(F)F)c2)nc2ccccc12)c1ccccc1	< 4.60	< 4.60		
COc1ccc(-c2nc3ccccc3c(C(=O)N[C@@H](C)c3ccccc3)c2CN2CCC(N3CCCCC3)CC2)cc1	6.49	5.30		
